Reference: patent US20260325487A1 (BS BIOTECHNA SPOLKA AKCYJNA, priority 2023, published 2026)
Like-named read-outs stand apart in the source and are kept apart here.

Legend:
Format in all cases: cell-based
NCI-H1975 = assay: SRB anti-proliferative assay, NCI-H1975, with CalcuSyn combination index (Example 1); conditions: Homo sapiens, NCI-H1975, 72 h, read-out: Zah. (inhibition of proliferation)
Method: (§1) Cells were thawed from ampoules stored in liquid nitrogen and cultured in petri dishes in appropriate culture medium according to Table 2, in a humidified 5% CO2 atmosphere at 37° C. Cells were passaged twice weekly using EDTA-Trypsin solution, pH 8. Counted cells with a viability of at least 90% as assessed with Trypan-Blue solution were used for anti-proliferative assays.
(§2) Twenty-four hours before the addition of the test compounds/combinations, cells were seeded into 384-well plates at 50 μL/well and a density of 10^3 cells/well, in the appropriate culture medium.
(§3) Solutions of the compounds were diluted in the test medium-RPMI-1640 and Opti-MEM in a 1:1 ratio, and the medium was supplemented with 2 mM glutamine and 5% fetal bovine serum FBS. After 72 h, colourimetric assessment of cell growth was performed by SRB. […] Unbound dye was removed by washing the plates (4×) in 1% (v/v) acetic acid, and protein-bound dye was extracted with 10 mM unbuffered Tris base and the optical density (A=540 nm) was determined in a BioTek Synergy H4 Hybrid computer microplate reader (BioTek Instruments USA). The entire washing/staining procedure was performed using a BioTek EL406 washing station (BioTek Instruments USA). The raw absorbance results were analysed in Microsoft Excel software using the formula:
(§4) [formula] • Where: • % Zahlnh-inhibition of proliferation • Am—absorbance of wells without cells (medium) • Ak—absorbance of control wells (cells treated with pure culture medium) • Ap—absorbance of wells treated with compounds
(§5) Each compound at the indicated concentrations was tested in triplicate in one experiment. Each experiment was repeated three times. Data analysis was supplemented with synergy assessment using CalcuSyn software. […] A CI value below 0.8 indicates synergism, 0.8-1.2 an additive effect, above 1.2 an antagonism.

SK-MEL3 = assay: SRB anti-proliferative assay, SK-MEL3, with CalcuSyn combination index (Example 1); conditions: Homo sapiens, SK-MEL3, 72 h, read-out: Zah. (inhibition of proliferation)
Method: as §1, §2, §3, §4, §5

NCI-H226 = assay: SRB anti-proliferative assay, NCI-H226, with CalcuSyn combination index (Example 1); conditions: Homo sapiens, NCI-H226, 72 h, read-out: Zah. (inhibition of proliferation)
Method: as §1, §2, §3, §4, §5

LN229 = assay: SRB anti-proliferative assay, LN229, with CalcuSyn combination index (Example 1); conditions: Homo sapiens, LN-229, 72 h, read-out: Zah. (inhibition of proliferation)
Method: as §1, §2, §3, §4, §5

LUDLU-1 = assay: SRB anti-proliferative assay, LUDLU-1, molecular combination and nanoparticles, with combination index (Example III); conditions: Homo sapiens, LUDLU-1, read-out: Zah. (inhibition of cell proliferation)
Method: (§6) Cells were thawed from ampoules stored in liquid nitrogen and cultured in petri dishes in the appropriate culture medium according to Table 16, in a humidified 5% CO2 atmosphere at 37° C. Cells were passaged twice weekly using EDTA-Trypsin solution, pH 8, as a separating agent. Counted cells with a viability of at least 90% as assessed with Trypan-Blue solution were used for anti-proliferation assays.
(§7) Twenty-four hours before the addition of the test compounds/combinations, cells were seeded into 384-well plates at 50 μL/well and a density of 10^3 cells/well, in the appropriate culture medium. […] Solutions of the compounds were diluted in the test medium—RPMI-1640 and Opti-MEM in a 1:1 ratio, and the medium was supplemented with 2 mM glutamine and 5% fetal bovine serum FBS.
as §3, with “After” for “Solutions of the compounds were diluted in the test medium-RPMI-1640 and Opti-MEM in a 1:1 ratio, and the medium was supplemented with 2 mM glutamine and 5% fetal bovine serum FBS. After”
as §4, §5

SW1990 = assay: SRB anti-proliferative assay, SW1990, with CalcuSyn combination index (Example 1); conditions: Homo sapiens, SW1990, 72 h, read-out: Zah. (inhibition of proliferation)
Method: as §1, §2, §3, §4, §5

8MGBA = assay: SRB anti-proliferative assay, 8MGBA, molecular combination and nanoparticles, with combination index (Example III); conditions: Homo sapiens, 8-MG-BA, 72 h
Method: as §6, §7
as §3, with “After” for “Solutions of the compounds were diluted in the test medium-RPMI-1640 and Opti-MEM in a 1:1 ratio, and the medium was supplemented with 2 mM glutamine and 5% fetal bovine serum FBS. After”
as §4, §5

C=CCNC1=C2C[C@@H](C)C[C@H](OC)[C@H](O)[C@@H](C)/C=C(\C)[C@H](OC(N)=O)[C@@H](OC)/C=C\C=C(/C)C(=O)NC(=CC1=O)C2=O [17AAG, 17-AAG (tanespimycin)]
inhibition at 0.0031 µM (NCI-H1975): 10%
inhibition at 0.01 µM (NCI-H1975): 25.2%
inhibition at 0.0314 µM (NCI-H1975): 66.7%
inhibition at 0.1 µM (NCI-H1975): 84.1%
inhibition at 0.3155 µM (NCI-H1975): 87.6%
inhibition at 1 µM (NCI-H1975): 88.5%
inhibition at 3.1546 µM (NCI-H1975): 88.4%
inhibition at 10 µM (NCI-H1975): 86.6%
inhibition at 0.0031 µM (SK-MEL3): 1.1%
inhibition at 0.01 µM (SK-MEL3): 14%
inhibition at 0.0314 µM (SK-MEL3): 40.3%
inhibition at 0.1 µM (SK-MEL3): 48.5%
inhibition at 0.3155 µM (SK-MEL3): 58.1%
inhibition at 1 µM (SK-MEL3): 58.5%
inhibition at 3.1546 µM (SK-MEL3): 60.7%
inhibition at 10 µM (SK-MEL3): 76.6%
inhibition at 0.0031 µM (NCI-H226): 19.3%
inhibition at 0.01 µM (NCI-H226): 27.3%
inhibition at 0.03 µM (NCI-H226): 32%
inhibition at 0.1 µM (NCI-H226): 43.8%
inhibition at 0.3124 µM (NCI-H226): 54.8%
inhibition at 1 µM (NCI-H226): 60.4%
inhibition at 3.1392 µM (NCI-H226): 71.9%
inhibition at 10 µM (NCI-H226): 72.6%
inhibition at 0.0032 µM (LN229): 3.3%
inhibition at 0.01 µM (LN229): 3.1%
inhibition at 0.0316 µM (LN229): 18.4%
inhibition at 0.1 µM (LN229): 28.9%
inhibition at 0.3163 µM (LN229): 38.7%
inhibition at 1 µM (LN229): 62.9%
inhibition at 3.1625 µM (LN229): 71.6%
inhibition at 10.0005 µM (LN229): 81.5%
inhibition at 0.0003163 µM (LUDLU-1): 3.9%
inhibition at 0.001 µM (LUDLU-1): 29.3%
inhibition at 0.0032 µM (LUDLU-1): 61.9%
inhibition at 0.01 µM (LUDLU-1): 75.1%
inhibition at 0.0316 µM (LUDLU-1): 60.2%
inhibition at 0.1 µM (LUDLU-1): 65.7%
inhibition at 0.3163 µM (LUDLU-1): 76.9%
inhibition at 1 µM (LUDLU-1): 80.2%
inhibition at 0.0031 µM (SW1990): -0.2%
inhibition at 0.01 µM (SW1990): 5.7%
inhibition at 0.0314 µM (SW1990): 40.7%
inhibition at 0.1 µM (SW1990): 81.7%
inhibition at 0.3155 µM (SW1990): 90.6%
inhibition at 1 µM (SW1990): 92.9%
inhibition at 3.1546 µM (SW1990): 93.5%
inhibition at 10 µM (SW1990): 92.6%
inhibition at 0.0003163 µM (8MGBA; read-out: Zah. (inhibition of proliferation), 17AAG 0.3163 nM, Tables 18a/19a): -3.9%
inhibition at 0.0003163 µM (8MGBA; read-out: Zah. (inhibition of proliferation), 17AAG 0.3163 nM, Tables 21a/22a): 6%
inhibition at 0.001 µM (8MGBA; read-out: Zah. (inhibition of proliferation), 17AAG 1 nM, Tables 18a/19a): 9.8%
inhibition at 0.001 µM (8MGBA; read-out: Zah. (inhibition of proliferation), 17AAG 1 nM, Tables 21a/22a): 15.7%
inhibition at 0.0032 µM (8MGBA; read-out: Zah. (inhibition of proliferation), 17AAG 3.2 nM, Tables 18a/19a): 64.9%
inhibition at 0.0032 µM (8MGBA; read-out: Zah. (inhibition of proliferation), 17AAG 3.2 nM, Tables 21a/22a): 4.7%
inhibition at 0.01 µM (8MGBA; read-out: Zah. (inhibition of proliferation), 17AAG 10 nM, Tables 18a/19a): 89.5%
inhibition at 0.01 µM (8MGBA; read-out: Zah. (inhibition of proliferation), 17AAG 10 nM, Tables 21a/22a): 7.8%
inhibition at 0.0316 µM (8MGBA; read-out: Zah. (inhibition of proliferation), 17AAG 31.6 nM, Tables 18a/19a): 88.5%
inhibition at 0.0316 µM (8MGBA; read-out: Zah. (inhibition of proliferation), 17AAG 31.6 nM, Tables 21a/22a): 20.1%
inhibition at 0.1 µM (8MGBA; read-out: Zah. (inhibition of proliferation), 17AAG 100 nM, Tables 18a/19a): 84.3%
inhibition at 0.1 µM (8MGBA; read-out: Zah. (inhibition of proliferation), 17AAG 100 nM, Tables 21a/22a): 37.4%
inhibition at 0.3163 µM (8MGBA; read-out: Zah. (inhibition of proliferation), 17AAG 316.3 nM, Tables 18a/19a): 86%
inhibition at 0.3163 µM (8MGBA; read-out: Zah. (inhibition of proliferation), 17AAG 316.3 nM, Tables 21a/22a): 64.6%
inhibition at 1 µM (8MGBA; read-out: Zah. (inhibition of proliferation), 17AAG 1000 nM, Tables 18a/19a): 91.9%
inhibition at 1 µM (8MGBA; read-out: Zah. (inhibition of proliferation), 17AAG 1000 nM, Tables 21a/22a): 81.1%
inhibition at 0.0003163 µM (8MGBA; read-out: Zah. (inhibition of proliferation), 72 h, 17AAG 0.3163 nM): -3.9%
inhibition at 0.001 µM (8MGBA; read-out: Zah. (inhibition of proliferation), 72 h, 17AAG 1 nM): 9.8%
inhibition at 0.0032 µM (8MGBA; read-out: Zah. (inhibition of proliferation), 72 h, 17AAG 3.2 nM): 64.9%
inhibition at 0.01 µM (8MGBA; read-out: Zah. (inhibition of proliferation), 72 h, 17AAG 10 nM): 89.5%
inhibition at 0.0316 µM (8MGBA; read-out: Zah. (inhibition of proliferation), 72 h, 17AAG 31.6 nM): 88.5%
inhibition at 0.1 µM (8MGBA; read-out: Zah. (inhibition of proliferation), 72 h, 17AAG 100 nM): 84.3%
inhibition at 0.3163 µM (8MGBA; read-out: Zah. (inhibition of proliferation), 72 h, 17AAG 316.3 nM): 86%
inhibition at 1 µM (8MGBA; read-out: Zah. (inhibition of proliferation), 72 h, 17AAG 1000 nM): 91.9%
